# Measured values published in article PMC12274840 (The Journal of Biological Chemistry, 2025).
# Where two headings read alike, the source gives them in different places.
# Columns and labels:
# [1] = test system: E. coli KA797 cells carrying pUK21 vector without the β-lactamase gene; assay: microbe, parasite or virus in culture; assay type: cell-based; conditions: Escherichia coli; antibiotic alone; pUK21 without β-lactamase gene; read-out: MIC
# [2] = test system: E. coli KA797 cells carrying pUK21 with CTX-M-14 WT (Tat); assay: microbe, parasite or virus in culture; assay type: cell-based; conditions: Escherichia coli, antibiotic alone
# [3] = test system: E. coli KA797 cells carrying pUK21 with KPC-2 (Tat); assay: microbe, parasite or virus in culture; assay type: cell-based; conditions: Escherichia coli, antibiotic alone
# [4] = test system: E. coli KA797 cells carrying BlaC position 105 library; assay type: cell-based, Escherichia coli; conditions: for Fi AVG (average fitness): relative to WT Ile; for Fi AVG (average fitness) / Fi MEM AVG: average of replicates; for Fi MEM AVG / Fi MEM 1 / Fi MEM 2 / Fi MEM 3 / Significance (Fi MEM AVG): meropenem; for Fi MEM 1: replicate 1; for Fi MEM 2: replicate 2; for Fi MEM 3: replicate 3
structure (smiles),measurement,setting,value
C[C@@H](O)[C@H]1C(=O)N2C(C(=O)O)=C(S[C@@H]3CN[C@H](C(=O)N(C)C)C3)[C@H](C)[C@H]12 [meropenem],MIC,[1],0.05 µg/mL
same,MIC,[2],0.1 µg/mL
same,MIC,[3],0.4 µg/mL
same,Fi AVG (average fitness),[4]; AA 105 Ala (BlaC I105A),-0.028
same,Fi MEM AVG,[4]; AA 105 Ala,-0.183
same,Fi MEM 1,[4]; AA 105 Ala,-0.183
same,Fi MEM AVG,[4]; AA 105 Arg,-0.097
same,Fi MEM 1,[4]; AA 105 Arg,0.189
same,Fi MEM 2,[4]; AA 105 Arg,0.262
same,Fi MEM 3,[4]; AA 105 Arg,-0.743
same,Fi AVG (average fitness),[4]; AA 105 Asn (BlaC I105N),-0.021
same,Fi MEM AVG,[4]; AA 105 Asn,-0.526
same,Fi MEM 1,[4]; AA 105 Asn,0.793
same,Fi MEM 2,[4]; AA 105 Asn,-1.824
same,Fi MEM 3,[4]; AA 105 Asn,-0.547
same,Fi AVG (average fitness),[4]; AA 105 Asp (BlaC I105D),-0.059
same,Significance (Fi MEM AVG),[4]; AA 105 Asp,-
same,Fi MEM AVG,[4]; AA 105 Asp,-1.181
same,Fi MEM 1,[4]; AA 105 Asp,-1.339
same,Fi MEM 2,[4]; AA 105 Asp,-1.644
same,Fi MEM 3,[4]; AA 105 Asp,-0.561
same,Fi MEM AVG,[4]; AA 105 Cys,-0.623
same,Fi MEM 1,[4]; AA 105 Cys,-1.368
same,Fi MEM 2,[4]; AA 105 Cys,1.109
same,Fi MEM 3,[4]; AA 105 Cys,-1.611
same,Fi AVG (average fitness),[4]; AA 105 Gln (BlaC I105Q),-0.020
same,Fi MEM AVG,[4]; AA 105 Gln,-1.909
same,Fi MEM 2,[4]; AA 105 Gln,-1.909
same,Fi AVG (average fitness),[4]; AA 105 Glu (BlaC I105E),-0.058
same,Significance (Fi MEM AVG),[4]; AA 105 Glu,-
same,Fi MEM AVG,[4]; AA 105 Glu,-1.296
same,Fi MEM 1,[4]; AA 105 Glu,-1.915
same,Fi MEM 2,[4]; AA 105 Glu,0.069
same,Fi MEM 3,[4]; AA 105 Glu,-2.043
same,Fi AVG (average fitness),[4]; AA 105 Gly (BlaC I105G),-0.019
same,Significance (Fi MEM AVG),[4]; AA 105 Gly,-
same,Fi MEM AVG,[4]; AA 105 Gly,-1.447
same,Fi MEM 1,[4]; AA 105 Gly,-0.905
same,Fi MEM 2,[4]; AA 105 Gly,-2.832
same,Fi MEM 3,[4]; AA 105 Gly,-0.603
same,Fi MEM AVG,[4]; AA 105 His,0.129
same,Fi MEM 1,[4]; AA 105 His,1.220
same,Fi MEM 2,[4]; AA 105 His,-0.828
same,Fi MEM 3,[4]; AA 105 His,-0.00649
same,Fi MEM AVG,[4]; AA 105 Ile (WT),0.000
same,Fi MEM 1,[4]; AA 105 Ile (WT),0.000
same,Fi MEM 2,[4]; AA 105 Ile (WT),0.000
same,Fi MEM 3,[4]; AA 105 Ile (WT),0.000
same,Significance (Fi MEM AVG),[4]; AA 105 Leu,-
same,Fi MEM AVG,[4]; AA 105 Leu,-1.047
same,Fi MEM 1,[4]; AA 105 Leu,-0.470
same,Fi MEM 2,[4]; AA 105 Leu,-1.669
same,Fi MEM 3,[4]; AA 105 Leu,-1.001
same,Significance (Fi MEM AVG),[4]; AA 105 Lys,-
same,Fi MEM AVG,[4]; AA 105 Lys,-2.317
same,Fi MEM 1,[4]; AA 105 Lys,-1.936
same,Fi MEM 2,[4]; AA 105 Lys,-2.755
same,Fi MEM 3,[4]; AA 105 Lys,-2.261
same,Fi MEM AVG,[4]; AA 105 Met,-0.579
same,Fi MEM 1,[4]; AA 105 Met,-0.023
same,Fi MEM 2,[4]; AA 105 Met,-0.087
same,Fi MEM 3,[4]; AA 105 Met,-1.628
same,Significance (Fi MEM AVG),[4]; AA 105 Phe,-
same,Fi MEM AVG,[4]; AA 105 Phe,-1.123
same,Fi MEM 1,[4]; AA 105 Phe,-0.896
same,Fi MEM 2,[4]; AA 105 Phe,-1.005
same,Fi MEM 3,[4]; AA 105 Phe,-1.468
same,Fi AVG (average fitness),[4]; AA 105 Pro (BlaC I105P),-0.044
same,Significance (Fi MEM AVG),[4]; AA 105 Pro,-
same,Fi MEM AVG,[4]; AA 105 Pro,-1.653
same,Fi MEM 1,[4]; AA 105 Pro,-2.435
same,Fi MEM 2,[4]; AA 105 Pro,0.050
same,Fi MEM 3,[4]; AA 105 Pro,-2.575
same,Significance (Fi MEM AVG),[4]; AA 105 Ser,-
same,Fi MEM AVG,[4]; AA 105 Ser,-1.018
same,Fi MEM 1,[4]; AA 105 Ser,-0.084
